# Experiments:
# [1] = Antiproliferative activity against human EC9706 cells after 48 hrs by MTT assay; format: functional, cell-based; settings: EC9706, 48 h
# MGC-803 [2] = assay: Antiproliferative activity against human MGC803 cells after 48 hrs by MTT assay; format: functional, cell-based; settings: MGC-803, 48 h
# MCF7 [3] = assay: Antiproliferative activity against human MCF7 cells after 48 hrs by MTT assay; format: functional, cell-based; settings: MCF7, 48 h
# MCF7 [4] = assay: Induction of apoptosis in human MCF7 cells assessed as late apoptotic cells at 8 uM after 16 hrs using Annexin V/PI double staining by flow cytometry (reference value: 0.7 %); format: functional
# MCF7 [5] = assay: Induction of apoptosis in human MCF7 cells assessed as necrotic cells at 8 uM after 16 hrs using Annexin V/PI double staining by flow cytometry (reference value: 0.7 %); format: functional
# MCF7 [6] = assay: Cell cycle arrest in human MCF7 cells assessed as accumulation at G0/G1 phase at 2 uM after 8 hrs using propidium iodide staining by flow cytometry (reference value: 47.36 %); format: functional
# MCF7 [7] = assay: Cell cycle arrest in human MCF7 cells assessed as accumulation at S phase at 2 uM after 8 hrs using propidium iodide staining by flow cytometry (reference value: 33.03 %); format: functional
# MCF7 [8] = assay: Cell cycle arrest in human MCF7 cells assessed as accumulation at G2/M phase at 2 uM after 8 hrs using propidium iodide staining by flow cytometry (reference value: 19.35 %); format: functional
# MCF7 [9] = assay: Cell cycle arrest in human MCF7 cells assessed as accumulation at G0/G1 phase at 4 uM after 8 hrs using propidium iodide staining by flow cytometry (reference value: 47.36 %); format: functional
# MCF7 [10] = assay: Cell cycle arrest in human MCF7 cells assessed as accumulation at S phase at 4 uM after 8 hrs using propidium iodide staining by flow cytometry (reference value: 33.03 %); format: functional
# MCF7 [11] = assay: Cell cycle arrest in human MCF7 cells assessed as accumulation at G2/M phase at 4 uM after 8 hrs using propidium iodide staining by flow cytometry (reference value: 19.35 %); format: functional
# MCF7 [12] = assay: Cell cycle arrest in human MCF7 cells assessed as accumulation at G0/G1 phase at 8 uM after 8 hrs using propidium iodide staining by flow cytometry (reference value: 47.36 %); format: functional
# MCF7 [13] = assay: Cell cycle arrest in human MCF7 cells assessed as accumulation at S phase at 8 uM after 8 hrs using propidium iodide staining by flow cytometry (reference value: 33.03 %); format: functional
# MCF7 [14] = assay: Cell cycle arrest in human MCF7 cells assessed as accumulation at G2/M phase at 8 uM after 8 hrs using propidium iodide staining by flow cytometry (reference value: 19.35 %); format: functional
# MCF7 [15] = assay: Cell cycle arrest in human MCF7 cells assessed as accumulation at G0/G1 phase at 2 uM after 16 hrs using propidium iodide staining by flow cytometry (reference value: 46.01 %); format: functional
# MCF7 [16] = assay: Cell cycle arrest in human MCF7 cells assessed as accumulation at S phase at 2 uM after 16 hrs using propidium iodide staining by flow cytometry (reference value: 30.05 %); format: functional
# MCF7 [17] = assay: Cell cycle arrest in human MCF7 cells assessed as accumulation at G2/M phase at 2 uM after 16 hrs using propidium iodide staining by flow cytometry (reference value: 20.08 %); format: functional
# MCF7 [18] = assay: Cell cycle arrest in human MCF7 cells assessed as accumulation at G0/G1 phase at 4 uM after 16 hrs using propidium iodide staining by flow cytometry (reference value: 46.01 %); format: functional
# MCF7 [19] = assay: Cell cycle arrest in human MCF7 cells assessed as accumulation at S phase at 4 uM after 16 hrs using propidium iodide staining by flow cytometry (reference value: 30.05 %); format: functional
# MCF7 [20] = assay: Cell cycle arrest in human MCF7 cells assessed as accumulation at G2/M phase at 4 uM after 16 hrs using propidium iodide staining by flow cytometry (reference value: 20.08 %); format: functional
# MCF7 [21] = assay: Cell cycle arrest in human MCF7 cells assessed as accumulation at G0/G1 phase at 8 uM after 16 hrs using propidium iodide staining by flow cytometry (reference value: 46.01 %); format: functional
# MCF7 [22] = assay: Cell cycle arrest in human MCF7 cells assessed as accumulation at S phase at 8 uM after 16 hrs using propidium iodide staining by flow cytometry (reference value: 30.05 %); format: functional
# MCF7 [23] = assay: Cell cycle arrest in human MCF7 cells assessed as accumulation at G2/M phase at 8 uM after 16 hrs using propidium iodide staining by flow cytometry (reference value: 20.08 %); format: functional
# [24] = Ratio of IC50 Jaspine B to compound IC50 for human EC9706 cells after 48 hrs by MTT assay; format: functional
# MGC-803 [25] = assay: Ratio of IC50 Jaspine B to compound IC50 for human MGC803 cells after 48 hrs by MTT assay; format: functional
# MCF7 [26] = assay: Ratio of IC50 Jaspine B to compound IC50 for human MCF7 cells after 48 hrs by MTT assay; format: functional
# MCF7 [27] = assay: Induction of apoptosis in human MCF7 cells assessed as viable cells at 2 uM after 8 hrs using Annexin V/PI double staining by flow cytometry (reference value: 84.3 %); format: functional; settings: MCF7, 8 h, read-out: Activity
# MCF7 [28] = assay: Induction of apoptosis in human MCF7 cells assessed as early apoptotic cells at 2 uM after 8 hrs using Annexin V/PI double staining by flow cytometry (reference value: 8.2 %); format: functional
# MCF7 [29] = assay: Induction of apoptosis in human MCF7 cells assessed as late apoptotic cells at 2 uM after 8 hrs using Annexin V/PI double staining by flow cytometry (reference value: 6.8 %); format: functional
# MCF7 [30] = assay: Induction of apoptosis in human MCF7 cells assessed as necrotic cells at 2 uM after 8 hrs using Annexin V/PI double staining by flow cytometry (reference value: 0.6 %); format: functional
# MCF7 [31] = assay: Induction of apoptosis in human MCF7 cells assessed as viable cells at 4 uM after 8 hrs using Annexin V/PI double staining by flow cytometry (reference value: 84.3 %); format: functional; settings: MCF7, 8 h, read-out: Activity
# MCF7 [32] = assay: Induction of apoptosis in human MCF7 cells assessed as early apoptotic cells at 4 uM after 8 hrs using Annexin V/PI double staining by flow cytometry (reference value: 8.2 %); format: functional
# MCF7 [33] = assay: Induction of apoptosis in human MCF7 cells assessed as late apoptotic cells at 4 uM after 8 hrs using Annexin V/PI double staining by flow cytometry (reference value: 6.8 %); format: functional
# MCF7 [34] = assay: Induction of apoptosis in human MCF7 cells assessed as necrotic cells at 4 uM after 8 hrs using Annexin V/PI double staining by flow cytometry (reference value: 0.6 %); format: functional
# MCF7 [35] = assay: Induction of apoptosis in human MCF7 cells assessed as viable cells at 8 uM after 8 hrs using Annexin V/PI double staining by flow cytometry (reference value: 84.3 %); format: functional; settings: MCF7, 8 h, read-out: Activity
# MCF7 [36] = assay: Induction of apoptosis in human MCF7 cells assessed as early apoptotic cells at 8 uM after 8 hrs using Annexin V/PI double staining by flow cytometry (reference value: 8.2 %); format: functional
# MCF7 [37] = assay: Induction of apoptosis in human MCF7 cells assessed as late apoptotic cells at 8 uM after 8 hrs using Annexin V/PI double staining by flow cytometry (reference value: 6.8 %); format: functional
# MCF7 [38] = assay: Induction of apoptosis in human MCF7 cells assessed as necrotic cells at 8 uM after 8 hrs using Annexin V/PI double staining by flow cytometry (reference value: 0.6 %); format: functional
# MCF7 [39] = assay: Induction of apoptosis in human MCF7 cells assessed as viable cells at 2 uM after 16 hrs using Annexin V/PI double staining by flow cytometry (reference value: 87.5 %); format: functional; settings: MCF7, 16 h, read-out: Activity
# MCF7 [40] = assay: Induction of apoptosis in human MCF7 cells assessed as early apoptotic cells at 2 uM after 16 hrs using Annexin V/PI double staining by flow cytometry (reference value: 11.1 %); format: functional
# MCF7 [41] = assay: Induction of apoptosis in human MCF7 cells assessed as late apoptotic cells at 2 uM after 16 hrs using Annexin V/PI double staining by flow cytometry (reference value: 0.7 %); format: functional
# MCF7 [42] = assay: Induction of apoptosis in human MCF7 cells assessed as necrotic cells at 2 uM after 16 hrs using Annexin V/PI double staining by flow cytometry (reference value: 0.7 %); format: functional
# MCF7 [43] = assay: Induction of apoptosis in human MCF7 cells assessed as viable cells at 4 uM after 16 hrs using Annexin V/PI double staining by flow cytometry (reference value: 87.5 %); format: functional; settings: MCF7, 16 h, read-out: Activity
# MCF7 [44] = assay: Induction of apoptosis in human MCF7 cells assessed as early apoptotic cells at 4 uM after 16 hrs using Annexin V/PI double staining by flow cytometry (reference value: 11.1 %); format: functional
# MCF7 [45] = assay: Induction of apoptosis in human MCF7 cells assessed as late apoptotic cells at 4 uM after 16 hrs using Annexin V/PI double staining by flow cytometry (reference value: 0.7 %); format: functional
# MCF7 [46] = assay: Induction of apoptosis in human MCF7 cells assessed as necrotic cells at 4 uM after 16 hrs using Annexin V/PI double staining by flow cytometry (reference value: 0.7 %); format: functional
# MCF7 [47] = assay: Induction of apoptosis in human MCF7 cells assessed as viable cells at 8 uM after 16 hrs using Annexin V/PI double staining by flow cytometry (reference value: 87.5 %); format: functional; settings: MCF7, 16 h, read-out: Activity
# MCF7 [48] = assay: Induction of apoptosis in human MCF7 cells assessed as early apoptotic cells at 8 uM after 16 hrs using Annexin V/PI double staining by flow cytometry (reference value: 11.1 %); format: functional
structure (smiles),measurement,setting,value
CCCCCCCCCn1cc(COC[C@@H]2OC[C@H](N)[C@@H]2O)nn1,IC50,[1],20.1 µM
same,IC50,MGC-803 [2],13.8 µM
same,IC50,MCF7 [3],12.4 µM
CCCCCCCCn1cc(COC[C@@H]2OC[C@H](N)[C@H]2O)nn1,IC50,[1],> 128 µM
same,IC50,MGC-803 [2],> 128 µM
same,IC50,MCF7 [3],> 128 µM
CCCCCCCn1cc(COC[C@@H]2OC[C@H](N)[C@@H]2O)nn1,IC50,[1],> 128 µM
same,IC50,MGC-803 [2],> 128 µM
same,IC50,MCF7 [3],> 128 µM
CCCCCCCCCCCCCCn1cc(COC[C@@H]2OC[C@H](N)[C@@H]2O)nn1,IC50,[1],7.83 µM
same,IC50,MGC-803 [2],8.21 µM
same,IC50,MCF7 [3],1.85 µM
CCCCCCCCCn1cc(COC[C@@H]2OC[C@H](N)[C@H]2O)nn1,IC50,[1],> 128 µM
same,IC50,MGC-803 [2],> 128 µM
same,IC50,MCF7 [3],> 128 µM
CCCCCCCCCCCCCCCCCCn1cc(COC[C@@H]2OC[C@H](N)[C@H]2O)nn1,Activity,MCF7 [4],12.5%
same,Activity,MCF7 [5],5.5%
same,Activity,MCF7 [6],42.27%
same,Activity,MCF7 [7],29.66%
same,Activity,MCF7 [8],27.97%
same,Activity,MCF7 [9],33.13%
same,Activity,MCF7 [10],28.66%
same,Activity,MCF7 [11],30.72%
same,Activity,MCF7 [12],19.11%
same,Activity,MCF7 [13],36.69%
same,Activity,MCF7 [14],39.13%
same,Activity,MCF7 [15],48.63%
same,Activity,MCF7 [16],20.04%
same,Activity,MCF7 [17],28.6%
same,Activity,MCF7 [18],42.05%
same,Activity,MCF7 [19],17.16%
same,Activity,MCF7 [20],36.4%
same,Activity,MCF7 [21],25.7%
same,Activity,MCF7 [22],23.53%
same,Activity,MCF7 [23],47.4%
same,Ratio IC50,[24],2
same,Ratio IC50,MGC-803 [25],2
same,Ratio IC50,MCF7 [26],2
same,IC50,[1],2.29 µM
same,IC50,MGC-803 [2],3.11 µM
same,IC50,MCF7 [3],1.93 µM
same,viability at 2 µM,MCF7 [27],81%
same,Activity,MCF7 [28],12%
same,Activity,MCF7 [29],5.9%
same,Activity,MCF7 [30],1.2%
same,viability at 4 µM,MCF7 [31],71.5%
same,Activity,MCF7 [32],13.9%
same,Activity,MCF7 [33],14.1%
same,Activity,MCF7 [34],0.5%
same,viability at 8 µM,MCF7 [35],56.3%
same,Activity,MCF7 [36],23.8%
same,Activity,MCF7 [37],18.6%
same,Activity,MCF7 [38],1.4%
same,viability at 2 µM,MCF7 [39],58.5%
same,Activity,MCF7 [40],31.4%
same,Activity,MCF7 [41],5.1%
same,Activity,MCF7 [42],4.9%
same,viability at 4 µM,MCF7 [43],38.2%
same,Activity,MCF7 [44],45%
same,Activity,MCF7 [45],11.6%
same,Activity,MCF7 [46],5.2%
same,viability at 8 µM,MCF7 [47],24%
same,Activity,MCF7 [48],57.9%
O=c1[nH]cc(F)c(=O)[nH]1 [FLUOROURACIL],IC50,[1],9.45 µM
same,IC50,MGC-803 [2],11.3 µM
same,IC50,MCF7 [3],3.52 µM
CCCCCCCCCCCCCCCCCCn1cc(COC[C@@H]2OC[C@H](N)[C@@H]2O)nn1,IC50,[1],17.8 µM
same,IC50,MGC-803 [2],15.4 µM
same,IC50,MCF7 [3],7.58 µM
CCCCCCCCn1cc(COC[C@@H]2OC[C@H](N)[C@@H]2O)nn1,IC50,[1],44.3 µM
same,IC50,MGC-803 [2],70.4 µM
same,IC50,MCF7 [3],28.1 µM
